According to patent publication EP0011845A2, “Antiseborrhoeic hair treatment composition” (Henkel Kommanditgesellschaft auf Aktien, priority 1978, dated 1980):

Tested on: Meerschweinchen
Experiment: Anti-dandruff test: oleic-acid-induced scaling and skin thickening on shaved guinea pig back
Format: in vivo
Settings: 5 % test substance with 5 % Ölsäure in 70 % ethanol, topical on the back, 60 min exposure, 4 consecutive days, evaluated on day 7, inhibition vs skin treated with oleic acid only; for Hautdickenmessung Hemmung %: skin fold thickness by Cutimeter nach Götze; for Hautschuppenmessung Hemmung %: visual scaling score on scale 0-4
Text: Die Prüfung auf Antischuppenwirkung wurde in folgender Weise durchgeführt, wobei B) als mit Natronlauge auf einen pH-Wert von 6 neutralisiertes Produkt zum Einsatz gelangte:
Die Prüfsubstanzen wurden in 5 %iger Konzentration zusammen mit 5 % Ölsäure in 70 %igem Ethanol gelöst und in alternierender Reihenfolge und in rotierendem Schema auf den Rücken junger, geschorener weiblicher Meerschweinchen im Gewicht von 600 ± 50 g aufgetragen. Die Einwirkungszeit der Substanzen wurde dabei auf 60 Minuten begrenzt, da diese Zeit ausreichte, um eine Wirkung zu erzielen. Anschließend wurden die Tiere mit warmem Wasser 30 Sekunden lang abgeduscht. Die Reihenfolge der Tiere bei der Applikation wechselte dabei täglich, um Differenzen in der Einwirkungszeit zwischen dem ersten und letzten Tier der Gruppe auf ein Minimum zu begrenzen. Diese Behandlung geschah an vier aufeinanderfolgenden Tagen, darauf folgte eine Ruhezeit (Entwicklungszeit von drei Tagen). Am siebenten Tag wurde ausgewertet, und zwar a) kutimetrisch auf Hautfaltendicke instrumentell mit dem Cutimeter nach Götze und b) visuell auf Schuppenbildung bzw. Hemmung nach einer 4-Punkte-Skala folgender Definition: • 0 = keine Schuppen • 1 = leichte Schuppen • 2 = kräftige Schuppen • 3 = starke Schuppen mit Rötung • 4 = Krusten mit Aufrichten der Haare.
Die Versuchsgruppen bestanden aus jeweils 6 Tieren. Die Kollektive wurden mathematisch auf Homogenität geprüft und nach Eliminierung signifikant abweichender Tiere wurden Mittelwert und Streuung für jede Substanz berechnet. Diese wurden in Beziehung gesetzt zu den Werten der nur mit 5 % Ölsäure in 70 %igem Ethanol behandelten Haut und daraus die Signifikanz der Hemmwirkung bestimmt. Das Ergebnis der Prüfung ist der nachstehenden Tabelle 1 zu entnehmen.

Compound	Hautdickenmessung Hemmung % [%]	Hautschuppenmessung Hemmung % [%]
COc1cc(C(=O)NCCCCCC(=O)O)cc(OC)c1OC [Wirkstoff B, N-(3,4,5-Trimethoxy-benzoyl)-6-amino-carbonsäure]	10	50
CCOC(=O)CCCCCNC(=O)c1cc(OC)c(OC)c(OC)c1 [Wirkstoff A, N-(3,4,5-Trimethoxy-benzoyl)-6-amino-capronsäure-ethylester]	15	100
